# Laboratory results as given in US9700044B2, “Symmetrical marinopyrrole derivatives as potential antibiotic agents” (priority 2013, dated 2017).
# Read-outs that look alike come from different tables or passages of the source.
# Tests used:
# K. penumonia = assay: MIC by agar dilution, K. penumonia; type: cell-based, K. pneumonia
# From the text: (§1) A panel of multiple resistance Gram-positive and Gram-negative pathogens listed in Tables 1 and 2 was used to evaluate the antimicrobial activity of marinopyrrole derivatives (Chart 1) with vancomycin as a positive control. Except for those marked with WHO, all pathogens were isolated between 2008 and 2010 in hospitals located in Beijing; Guangzhou; Sichuan, Shandong and Jiangsu Province. Determination of the minimum inhibitory concentration (MIC) was done by the guidelines of the Clinical and Laboratory Standards Institute (Clinical and Laboratory Standards Institute, Performance standards for antimicrobial susceptibility testing, seventeenth informational supplement. 2007, 27, M100-S17). The susceptibility tests of a bacterial strain to a marinopyrrole derivative were performed by an agar dilution method. Briefly, each sterile petri dish contained a final volume of 15 mL comprising 1 mL of a marinopyrrole derivative and 14 mL of Mueller-Hinton broth. The concentrations of a marinopyrrole derivative are 128, 64, 32, 16, 8, 4, 2, 1, 0.5, 0.25, 0.125, 0.06, 0.03, 0.015 and 0.008 μg/mL. The petri dish containing the broth with different concentration of antibiotics was first inoculated with 10^5 CFU/mL (Denley A400, United Kingdom) and the culture was then incubated with shaking at 35-37° C. for 18-20 h. The potency of the compound was determined and expressed as minimum inhibitory concentration (MIC) in μg/mL. The MIC was determined as the lowest concentration of antibiotic that inhibited visible bacterial growth.
# [1] = tested on: Moderately vancomycin-resistant Enterococci faecium with the VanA gene (WHO-3); assay: MIC by agar dilution, VRE (WHO-3); type: cell-based
# From the text: as §1
# P. aeruginosa = assay: MIC by agar dilution, P. aeruginosa; type: cell-based
# From the text: as §1
# [2] = tested on: Methicillin-resistant Staphylococcus aureus with the mec A gene and PBP2a (WHO-31); assay: MIC by agar dilution, MRSA (WHO-31); type: cell-based
# From the text: as §1
# [3] = tested on: Methicillin-susceptible Staphylococcus aureus (MSSA); assay: MIC by agar dilution, MSSA clinical isolates; type: cell-based; settings: MSSA
# From the text: as §1
# [4] = tested on: Oxacillin-resistant Staphylococcus aureus (WHO-25); assay: MIC by agar dilution, ORSA (WHO-25); type: cell-based
# From the text: as §1
# [5] = tested on: Methicillin-resistant Staphylococcus aureus (MRSA); assay: MIC by agar dilution, MRSA clinical isolates; type: cell-based; settings: MRSA
# From the text: as §1
# [6] = tested on: Highly vancomycin-resistant Enterococci faecalis (VRE); assay: MIC by agar dilution, highly resistant VRE; type: cell-based
# From the text: as §1
# E. coli = assay: MIC by agar dilution, E. coli; type: cell-based
# From the text: as §1
# [7] = tested on: Methicillin-resistant Staphylococcus epidermidis (MRSE); assay: MIC by agar dilution, MRSE clinical isolates; type: cell-based; settings: MRSE
# From the text: as §1
# [8] = Staphylococcus aureus, Table 1, 10 isolates
# [9] = Staphylococcus aureus, Table 2, data from 8 isolates
# [10] = Staphylococcus aureus, Table 3, data from 8 isolates
# [11] = Staphylococcus aureus, Table 1, ORSA (WHO-25), 1 isolate
# [12] = Staphylococcus aureus, Table 3, WHO-25
# [13] = Staphylococcus aureus, Table 2, WHO-25
# [14] = Staphylococcus epidermidis, Table 1, 3 isolates
# [15] = Staphylococcus epidermidis, Table 2, data from 4 isolates
# [16] = Staphylococcus epidermidis, Table 3, data from 4 isolates
# [17] = Table 1, K. penumonia, 4 isolates, value over three Gram-negative pathogens
# [18] = Table 1, VRE (WHO-3), 1 isolate
# [19] = Table 1, P. aeruginosa, 4 isolates, value over three Gram-negative pathogens
# [20] = Table 1, MRSA (WHO-31), 1 isolate
# [21] = Table 1, ORSA (WHO-25), 1 isolate
# [22] = Table 1, VRE (highly vancomycin-resistant E. faecalis), 2 isolates
# [23] = Table 1, E. coli, 4 isolates, value over three Gram-negative pathogens
compound,measurement,setting,value
"O=C(c1ccccc1O)c1[nH]c(Cl)c(Cl)c1-n1c(C(=O)c2ccccc2O)cc(Cl)c1Cl [Compound 1, marinopyrrole A, reference compound]",MIC,K. penumonia; Klebsiella pneumoniae,> 128 µg/mL
same,MIC,[1]; Enterococcus,1 µg/mL
same,MIC,"[1]; Enterococcus, VRE",0.5 to 1 µg/mL
same,MIC,"[1]; Table 3, WHO-3",1 µg/mL
same,MIC,P. aeruginosa; Pseudomonas aeruginosa,> 128 µg/mL
same,MIC,[2]; Staphylococcus aureus,1 µg/mL
same,MIC,"[2]; Staphylococcus aureus, MRSA",1 µg/mL
same,MIC,"[2]; Table 3, WHO-31",1 µg/mL
same,MIC,[3]; [8],0.5 to 1 µg/mL
same,MIC,[3]; [9],0.5 µg/mL
same,MIC,[3]; [10],0.5 µg/mL
same,MIC,[4]; [11],1 µg/mL
same,MIC,[4]; [12],1 µg/mL
same,MIC,[4]; [13],1 µg/mL
same,MIC,[5]; [8],1 µg/mL
same,MIC,[5]; [9],0.5 to 1 µg/mL
same,MIC,[5]; [10],0.5 to 1 µg/mL
same,MIC,[6],16 to 128 µg/mL
same,MIC,E. coli; Escherichia coli,> 128 µg/mL
same,MIC,[7]; [14],0.06 to 1 µg/mL
same,MIC,[7]; [15],0.25 µg/mL
same,MIC,[7]; [16],0.25 µg/mL
O=C(c1ccc(C(F)(F)F)cc1)c1[nH]c(Cl)c(Cl)c1-n1c(C(=O)c2ccc(C(F)(F)F)cc2)cc(Cl)c1Cl [Compound 1k],MIC,K. penumonia; [17],>128 µg/mL
same,MIC,[1]; [18],8 µg/mL
same,MIC,P. aeruginosa; [19],>128 µg/mL
same,MIC,[2]; [20],8 µg/mL
same,MIC,"[3]; Table 1, 10 isolates",8 to 32 µg/mL
same,MIC,[4]; [21],8 µg/mL
same,MIC,"[5]; Table 1, 10 isolates",32 to 64 µg/mL
same,MIC,[6]; [22],>128 µg/mL
same,MIC,E. coli; [23],>128 µg/mL
same,MIC,"[7]; Table 1, 3 isolates",0.03 to 4 µg/mL
COc1cccc(C(=O)c2[nH]c(Cl)c(Cl)c2-n2c(C(=O)c3cccc(OC)c3)cc(Cl)c2Cl)c1 [Compound 1e],MIC,K. penumonia; [17],>128 µg/mL
same,MIC,[1]; [18],>128 µg/mL
same,MIC,P. aeruginosa; [19],>128 µg/mL
same,MIC,[2]; [20],>128 µg/mL
same,MIC,"[3]; Table 1, 10 isolates",>128 µg/mL
same,MIC,[4]; [21],>128 µg/mL
same,MIC,"[5]; Table 1, 10 isolates",>128 µg/mL
same,MIC,[6]; [22],>128 µg/mL
same,MIC,E. coli; [23],>128 µg/mL
same,MIC,"[7]; Table 1, 3 isolates",>128 µg/mL
COc1cc(OC)c(C(=O)c2[nH]c(Cl)c(Cl)c2-n2c(C(=O)c3cc(Cl)c(OC)cc3OC)cc(Cl)c2Cl)cc1Cl [Compound 1n],MIC,K. penumonia; [17],>64 µg/mL
same,MIC,[1]; [18],>64 µg/mL
same,MIC,P. aeruginosa; [19],>64 µg/mL
same,MIC,[2]; [20],>64 µg/mL
same,MIC,"[3]; Table 1, 10 isolates",>64 µg/mL
same,MIC,[4]; [21],>64 µg/mL
same,MIC,"[5]; Table 1, 10 isolates",>64 µg/mL
same,MIC,[6]; [22],>64 µg/mL
same,MIC,E. coli; [23],>64 µg/mL
same,MIC,"[7]; Table 1, 3 isolates",>64 µg/mL
O=C(c1ccccc1)c1[nH]c(Cl)c(Cl)c1-n1c(C(=O)c2ccccc2)cc(Cl)c1Cl [Compound 1d],MIC,K. penumonia; [17],>128 µg/mL
same,MIC,[1]; [18],2 µg/mL
same,MIC,P. aeruginosa; [19],>128 µg/mL
same,MIC,[2]; [20],4 µg/mL
same,MIC,"[3]; Table 1, 10 isolates",2 to 8 µg/mL
same,MIC,[4]; [21],4 µg/mL
same,MIC,"[5]; Table 1, 10 isolates",4 to 8 µg/mL
same,MIC,[6]; [22],>128 µg/mL
same,MIC,E. coli; [23],>128 µg/mL
same,MIC,"[7]; Table 1, 3 isolates",0.5 to 4 µg/mL
O=C(c1ccc(F)cc1)c1[nH]c(Cl)c(Cl)c1-n1c(C(=O)c2ccc(F)cc2)cc(Cl)c1Cl [Compound 1i],MIC,K. penumonia; [17],>128 µg/mL
same,MIC,[1]; [18],4 µg/mL
same,MIC,P. aeruginosa; [19],>128 µg/mL
same,MIC,[2]; [20],4 µg/mL
same,MIC,"[3]; Table 1, 10 isolates",4 to 16 µg/mL
same,MIC,[4]; [21],8 µg/mL
same,MIC,"[5]; Table 1, 10 isolates",8 to 16 µg/mL
same,MIC,[6]; [22],>128 µg/mL
same,MIC,E. coli; [23],>128 µg/mL
same,MIC,"[7]; Table 1, 3 isolates",0.25 to 4 µg/mL
COc1ccccc1C(=O)c1[nH]c(Cl)c(Cl)c1-n1c(C(=O)c2ccccc2OC)cc(Cl)c1Cl [Compound 1c],MIC,K. penumonia; [17],>128 µg/mL
same,MIC,[1]; [18],2 µg/mL
same,MIC,P. aeruginosa; [19],>128 µg/mL
same,MIC,[2]; [20],4 µg/mL
same,MIC,"[3]; Table 1, 10 isolates",4 to 16 µg/mL
same,MIC,[4]; [21],8 µg/mL
same,MIC,"[5]; Table 1, 10 isolates",4 to 16 µg/mL
same,MIC,[6]; [22],>128 µg/mL
same,MIC,E. coli; [23],>128 µg/mL
same,MIC,"[7]; Table 1, 3 isolates",2 to 4 µg/mL
O=C(c1ccccc1F)c1[nH]c(Cl)c(Cl)c1-n1c(C(=O)c2ccccc2F)cc(Cl)c1Cl [Compound 1g],MIC,K. penumonia; [17],>128 µg/mL
same,MIC,[1]; [18],>128 µg/mL
same,MIC,P. aeruginosa; [19],>128 µg/mL
same,MIC,[2]; [20],>128 µg/mL
same,MIC,"[3]; Table 1, 10 isolates",>128 µg/mL
same,MIC,[4]; [21],>128 µg/mL
same,MIC,"[5]; Table 1, 10 isolates",>128 µg/mL
same,MIC,[6]; [22],>128 µg/mL
same,MIC,E. coli; [23],>128 µg/mL
same,MIC,"[7]; Table 1, 3 isolates",>128 µg/mL
"CN[C@H](CC(C)C)C(=O)N[C@H]1C(=O)N[C@@H](CC(N)=O)C(=O)N[C@H]2C(=O)N[C@H]3C(=O)N[C@H](C(=O)N[C@H](C(=O)O)c4cc(O)cc(O)c4-c4cc3ccc4O)[C@H](O)c3ccc(c(Cl)c3)Oc3cc2cc(c3O[C@@H]2O[C@H](CO)[C@@H](O)[C@H](O)[C@H]2O[C@H]2C[C@](C)(N)[C@H](O)[C@H](C)O2)Oc2ccc(cc2Cl)[C@H]1O [Van, Vancomycin, reference compound]",MIC,K. penumonia; Klebsiella pneumoniae,> 128 µg/mL
same,MIC,[1]; Enterococcus,> 128 µg/mL
same,MIC,"[1]; Enterococcus, VRE",> 64 µg/mL
same,MIC,"[1]; Table 3, WHO-3",>128 µg/mL
same,MIC,P. aeruginosa; Pseudomonas aeruginosa,> 128 µg/mL
same,MIC,[2]; Staphylococcus aureus,1 µg/mL
same,MIC,"[2]; Staphylococcus aureus, MRSA",0.5 µg/mL
same,MIC,"[2]; Table 3, WHO-31",1 µg/mL
same,MIC,[3]; [8],0.5 to 1 µg/mL
same,MIC,[3]; [9],1 µg/mL
same,MIC,[3]; [10],1 µg/mL
same,MIC,[4]; [11],2 µg/mL
same,MIC,[4]; [12],4 µg/mL
same,MIC,[4]; [13],4 µg/mL
same,MIC,[5]; [8],0.25 to 0.5 µg/mL
same,MIC,[5]; [9],0.5 to 1 µg/mL
same,MIC,[5]; [10],0.5 to 1 µg/mL
same,MIC,[6],> 128 µg/mL
same,MIC,E. coli; Escherichia coli,> 128 µg/mL
same,MIC,[7]; [14],0.13 to 0.5 µg/mL
same,MIC,[7]; [15],0.5 to 1 µg/mL
same,MIC,[7]; [16],0.5 to 1 µg/mL
COc1ccc(C(=O)c2[nH]c(Cl)c(Cl)c2-n2c(C(=O)c3ccc(OC)cc3)cc(Cl)c2Cl)cc1 [Compound 1f],MIC,K. penumonia; [17],>128 µg/mL
same,MIC,[1]; [18],>128 µg/mL
same,MIC,P. aeruginosa; [19],>128 µg/mL
same,MIC,[2]; [20],>128 µg/mL
same,MIC,"[3]; Table 1, 10 isolates",>128 µg/mL
same,MIC,[4]; [21],>128 µg/mL
same,MIC,"[5]; Table 1, 10 isolates",>128 µg/mL
same,MIC,[6]; [22],>128 µg/mL
same,MIC,E. coli; [23],>128 µg/mL
same,MIC,"[7]; Table 1, 3 isolates",>128 µg/mL
COc1cc(O)c(C(=O)c2[nH]c(Cl)c(Cl)c2-n2c(C(=O)c3cc(Cl)c(OC)cc3O)cc(Cl)c2Cl)cc1Cl [Compound 1m],MIC,K. penumonia; [17],>128 µg/mL
same,MIC,[1]; [18],0.5 µg/mL
same,MIC,P. aeruginosa; [19],>128 µg/mL
same,MIC,[2]; [20],4 µg/mL
same,MIC,"[3]; Table 1, 10 isolates",2 to 8 µg/mL
same,MIC,[4]; [21],4 µg/mL
same,MIC,"[5]; Table 1, 10 isolates",2 to 8 µg/mL
same,MIC,[6]; [22],>128 µg/mL
same,MIC,E. coli; [23],>128 µg/mL
same,MIC,"[7]; Table 1, 3 isolates",0.25 to 4 µg/mL
